In patent publication US11339130B1 (Blade Therapeutics, Inc., priority 2016, dated 2022):
Like-named read-outs stand apart in the source and are kept apart here.

Assays:
Human Calpain 9/NS1 = target: T1, Human Calpain 9/NS1 (Homo sapiens, UniProt O14815); assay: Calpain inhibition continuous fluorescence (FRET) assay, Human Calpain 9/NS1; format: biochemical; details: read-out: Human Calpain 9/NS1 IC50
T1 sequence (O14815 1-690): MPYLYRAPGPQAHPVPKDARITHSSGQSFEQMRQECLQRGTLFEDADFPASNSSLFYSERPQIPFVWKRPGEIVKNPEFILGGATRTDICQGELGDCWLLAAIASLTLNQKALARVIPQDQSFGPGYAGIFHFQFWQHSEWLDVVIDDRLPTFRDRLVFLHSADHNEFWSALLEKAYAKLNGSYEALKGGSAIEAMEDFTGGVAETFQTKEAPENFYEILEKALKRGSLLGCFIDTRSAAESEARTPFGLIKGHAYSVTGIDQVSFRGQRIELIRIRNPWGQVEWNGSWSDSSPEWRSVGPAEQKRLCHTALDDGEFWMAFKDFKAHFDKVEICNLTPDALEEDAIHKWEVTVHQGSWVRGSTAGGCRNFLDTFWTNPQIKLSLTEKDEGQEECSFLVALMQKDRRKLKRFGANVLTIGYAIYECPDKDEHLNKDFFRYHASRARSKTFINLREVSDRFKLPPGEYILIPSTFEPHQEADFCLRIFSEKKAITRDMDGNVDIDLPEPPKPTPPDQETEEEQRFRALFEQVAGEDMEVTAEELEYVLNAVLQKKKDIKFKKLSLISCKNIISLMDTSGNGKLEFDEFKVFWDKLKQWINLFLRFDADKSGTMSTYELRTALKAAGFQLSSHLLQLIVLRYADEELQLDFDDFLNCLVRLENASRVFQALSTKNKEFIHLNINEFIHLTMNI
T1 sequence (P04632 1-268 partner): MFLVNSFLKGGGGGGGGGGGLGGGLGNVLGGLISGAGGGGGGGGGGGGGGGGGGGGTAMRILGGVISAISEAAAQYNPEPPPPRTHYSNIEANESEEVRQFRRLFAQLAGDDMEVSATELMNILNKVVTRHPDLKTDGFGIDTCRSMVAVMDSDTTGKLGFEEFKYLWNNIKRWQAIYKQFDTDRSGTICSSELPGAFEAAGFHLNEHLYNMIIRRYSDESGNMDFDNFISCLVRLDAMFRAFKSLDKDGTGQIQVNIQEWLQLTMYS
In short: (§1)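 Fluorescence increase from the cleaved 5-FAM/QXL 520 substrate, read at 490/520 nm, gave activity. Calcium was supplied with the substrate to activate the enzyme in situ after a 25C enzyme-inhibitor preincubation, and IC50s were fit from initial slopes.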

[1] = tested on: Calpain activity in SH-SY5Y cells (SBDP-150); assay: SH-SY5Y Spectrin western blot assay (SBDP-150 breakdown product, A23187-induced); format: cell-based; details: SH-SY5Y cells, read-out: SH-SY5Y Spectrin IC50
Human Calpain 1/NS1 = target: T2, Human Calpain 1/NS1 (Homo sapiens, UniProt P07384); assay: Calpain inhibition continuous fluorescence (FRET) assay, Human Calpain 1/NS1; format: biochemical; details: read-out: Human Calpain 1/NS1 IC50
T2 sequence (P07384 1-714): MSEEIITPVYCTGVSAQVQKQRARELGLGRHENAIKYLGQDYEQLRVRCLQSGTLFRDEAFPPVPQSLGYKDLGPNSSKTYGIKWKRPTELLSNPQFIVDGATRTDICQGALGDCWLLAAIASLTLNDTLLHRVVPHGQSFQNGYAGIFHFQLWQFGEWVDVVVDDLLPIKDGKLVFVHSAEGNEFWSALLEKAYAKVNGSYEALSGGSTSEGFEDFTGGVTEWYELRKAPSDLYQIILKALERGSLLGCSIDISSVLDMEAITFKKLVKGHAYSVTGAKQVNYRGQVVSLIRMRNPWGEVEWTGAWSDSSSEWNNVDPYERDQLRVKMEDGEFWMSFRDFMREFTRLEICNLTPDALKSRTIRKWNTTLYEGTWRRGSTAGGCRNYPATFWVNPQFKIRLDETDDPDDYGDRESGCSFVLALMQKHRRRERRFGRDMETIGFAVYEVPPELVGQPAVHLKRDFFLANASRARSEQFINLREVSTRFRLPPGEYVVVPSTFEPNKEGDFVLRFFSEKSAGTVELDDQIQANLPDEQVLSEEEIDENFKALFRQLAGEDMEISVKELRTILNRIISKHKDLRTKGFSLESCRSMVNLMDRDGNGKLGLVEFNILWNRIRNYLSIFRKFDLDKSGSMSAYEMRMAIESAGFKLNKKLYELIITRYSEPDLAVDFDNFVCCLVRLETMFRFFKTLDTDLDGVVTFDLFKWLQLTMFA
T2 sequence (P04632 1-268 partner): T1 sequence (P04632 1-268 partner)
In short: as §1

[2] = tested on: Calpain activity in SH-SY5Y cells; assay: SH-SY5Y + AMC fluorescence assay (Suc-LLVY-AMC substrate); format: cell-based; details: read-out: SH-SY5Y + AMC IC50
Human Calpain 2/NS1 = target: T3, Human Calpain 2/NS1 (Homo sapiens, UniProt P17655); assay: Calpain inhibition continuous fluorescence (FRET) assay, Human Calpain 2/NS1; format: biochemical; details: read-out: Human Calpain 2/NS1 IC50
T3 sequence (P17655 1-700): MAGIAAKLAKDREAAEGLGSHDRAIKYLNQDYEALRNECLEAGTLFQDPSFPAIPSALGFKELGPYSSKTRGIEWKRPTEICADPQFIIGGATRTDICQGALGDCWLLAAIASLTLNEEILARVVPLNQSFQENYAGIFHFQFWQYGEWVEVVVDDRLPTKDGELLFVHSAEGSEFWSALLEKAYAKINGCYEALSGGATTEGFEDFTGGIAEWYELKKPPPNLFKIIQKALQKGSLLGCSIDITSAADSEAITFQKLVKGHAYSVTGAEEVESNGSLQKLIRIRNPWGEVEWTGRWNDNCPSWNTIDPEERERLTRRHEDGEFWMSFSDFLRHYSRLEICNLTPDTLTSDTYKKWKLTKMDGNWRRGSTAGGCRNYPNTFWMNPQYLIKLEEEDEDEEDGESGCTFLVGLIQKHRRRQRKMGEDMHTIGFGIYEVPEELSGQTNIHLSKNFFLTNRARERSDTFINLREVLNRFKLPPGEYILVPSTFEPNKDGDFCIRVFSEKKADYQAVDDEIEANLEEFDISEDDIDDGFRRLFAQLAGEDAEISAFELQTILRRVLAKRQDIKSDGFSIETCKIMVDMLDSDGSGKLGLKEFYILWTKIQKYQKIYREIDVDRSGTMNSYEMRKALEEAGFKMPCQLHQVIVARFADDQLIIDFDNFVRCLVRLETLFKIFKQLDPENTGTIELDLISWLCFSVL
T3 sequence (P04632 1-268 partner): T1 sequence (P04632 1-268 partner)
In short: as §1

[3] = Homo sapiens, A23187-induced SBDP-150, western blot

| Compound | IC50 (Human Calpain 9/NS1; Column C) | IC50 ([1]; Homo sapiens, Column D, A23187-induced SBDP-150) | IC50 (Human Calpain 1/NS1; Column A) | IC50 ([2]; Column E) | IC50 (Human Calpain 9/NS1) | IC50 [1, 3] | IC50 (Human Calpain 1/NS1) | IC50 [2] | IC50 (Human Calpain 2/NS1) | IC50 ([1]; A23187-induced SBDP-150, western blot) |
| --- | --- | --- | --- | --- | --- | --- | --- | --- | --- | --- |
| Cc1nc(-c2cccc(F)c2)c(C(=O)N[C@@H](Cc2ccccc2)C(=O)C(N)=O)o1 [Compound 254, (S)—N-(4-amino-3,4-dioxo-1-phenylbutan-2-yl)-4-(3-fluorophenyl)-2-methyloxazole-5-carboxamide] | < 3 µM | 10 to 25 µM | < 3 µM | < 10 µM |  |  |  |  |  |  |
| Cn1cc(C(=O)NC(Cc2ccccc2)C(=O)C(N)=O)c(-c2cccc(C(F)(F)F)c2F)n1 (stereo not shown) [Compound 516, N-(4-amino-3,4-dioxo-1-phenylbutan-2-yl)-3-(2-fluoro-3-(trifluoromethyl)phenyl)-1-methyl-1H-pyrazole-4-carboxamide] |  |  |  |  | < 3 µM | > 25 µM | < 3 µM |  | < 3 µM |  |
| NC(=O)C(=O)C(Cc1ccccc1)NC(=O)c1cn(-c2cccc(F)c2)nc1-c1ccccc1 (stereo not shown) [Compound 528, N-(4-amino-3,4-dioxo-1-phenylbutan-2-yl)-1-(3-fluorophenyl)-3-phenyl-1H-pyrazole-4-carb oxamide] |  |  |  |  | < 3 µM | > 25 µM | < 3 µM |  | < 3 µM |  |
| NC(=O)C(=O)C(Cc1ccccc1)NC(=O)c1nsnc1-c1ccc2c(c1)OC(F)(F)O2 (stereo not shown) [Compound 599, N-(4-amino-3,4-dioxo-1-phenylbutan-2-yl)-4-(2,2-difluorobenzo[d][1,3]dioxol-5-yl)-1,2,5-thiadiazole-3-carboxamide] |  |  |  |  | < 3 µM | > 25 µM |  | > 25 µM |  |  |
| NC(=O)C(=O)C(Cc1ccccc1)NC(=O)c1cn(C(F)F)nc1-c1cc2ccccc2cn1 (stereo not shown) [Compound 608, N-(4-amino-3,4-dioxo-1-phenylbutan-2-yl)-1-(difluoromethyl)-3-(isoquinolin-3-yl)-1H-pyrazole-4-carboxamide] |  |  |  |  | < 3 µM | > 25 µM | < 3 µM |  | < 3 µM |  |
| (S)—N-(4-(((1H-benzo[d]imidazol-5-yl)methyl)amino)-3,4-dioxo-1-phenyl butan-2-yl)-3-methyl-5-phenylisoxazole-4-carboxamide [Compound 493] |  |  |  |  | 3 to 10 µM |  | < 3 µM |  | < 3 µM | > 25 µM |

Other lines, results leading:

| IC50 (Human Calpain 9/NS1; Column C) | IC50 ([1]; Homo sapiens, Column D, A23187-induced SBDP-150) | IC50 (Human Calpain 1/NS1; Column A) | IC50 ([2]; Column E) | IC50 (Human Calpain 9/NS1) | IC50 [1, 3] | IC50 (Human Calpain 1/NS1) | IC50 [2] | IC50 (Human Calpain 2/NS1) | IC50 ([1]; A23187-induced SBDP-150, western blot) | Compound |
| --- | --- | --- | --- | --- | --- | --- | --- | --- | --- | --- |
|  |  |  |  | < 3 µM | < 10 µM | < 3 µM | < 10 µM |  |  | NC(=O)C(=O)[C@H](Cc1ccccc1)NC(=O)c1cn(C(F)F)nc1-c1ccccc1 [Compound 379, (S)—N-(4-amino-3,4-dioxo-1-phenylbutan-2-yl)-1-(difluoromethyl)-3-phenyl-1H-pyrazole-4-carboxamide] |
|  |  |  |  |  | 10 to 25 µM | < 3 µM | < 10 µM | < 3 µM |  | CCn1cc(C(=O)NC(Cc2ccccc2)C(=O)C(N)=O)c(-c2cccc(F)c2)n1 (stereo not shown) [Compound 470, N-(4-amino-3,4-dioxo-1-phenylbutan-2-yl)-1-ethyl-3-(3-fluorophenyl)-1H-pyrazole-4-carboxamide] |
|  |  |  |  | < 3 µM | > 25 µM | < 3 µM |  | < 3 µM |  | Cn1cc(C(=O)NC(Cc2ccccc2)C(=O)C(N)=O)c(-c2ccc(C#N)nc2)n1 (stereo not shown) [Compound 481, N-(4-amino-3,4-dioxo-1-phenylbutan-2-yl)-3-(6-cyanopyridin-3-yl)-1-methyl-1H-pyrazole-4-carboxamide] |
|  |  |  |  | < 3 µM | > 25 µM | > 10 µM |  | 3 to 10 µM |  | Cn1cc(C(=O)NC(Cc2ccccc2)C(=O)C(N)=O)c(Cc2ccccc2)n1 (stereo not shown) [Compound 483, N-(4-amino-3,4-dioxo-1-phenylbutan-2-yl)-3-benzyl-1-methyl-1H-pyrazole-4-carboxamide] |
|  |  |  |  | 3 to 10 µM | 10 to 25 µM | < 3 µM |  | < 3 µM |  | C#CCOCc1ccc(-c2nn(C)cc2C(=O)N[C@@H](Cc2ccccc2)C(=O)CF)c(F)c1 [Compound 521, (S)—N-(4-fluoro-3-oxo-1-phenylbutan-2-yl)-3-(2-fluoro-4-((prop-2-yn-1-yloxy)methyl)phenyl)-1-methyl-1H-pyrazole-4-carboxamide] |
|  |  |  |  |  | 10 to 25 µM | < 3 µM | < 10 µM |  |  | NC(=O)C(=O)C(Cc1ccccc1)NC(=O)c1cn(C(F)F)nc1-c1cc(F)cc(F)c1 (stereo not shown) [Compound 523, N-(4-amino-3,4-dioxo-1-phenylbutan-2-yl)-1-(difluoromethyl)-3-(3,5-difluorophenyl)-1H-pyrazole-4-carboxamide] |
|  |  |  |  | < 3 µM | < 10 µM | < 3 µM |  | < 3 µM |  | Cc1nc(-c2cccc3c2OCO3)c(C(=O)NC(Cc2ccccc2)C(=O)C(N)=O)o1 (stereo not shown) [Compound 609, N-(4-amino-3,4-dioxo-1-phenylbutan-2-yl)-4-(benzo[d][1,3]dioxol-4-yl)-2-methyloxazole-5-c arboxamide] |
|  |  |  |  | < 3 µM | < 10 µM | < 3 µM |  | < 3 µM |  | NC(=O)C(=O)C(Cc1ccccc1)NC(=O)c1cn(C(F)F)nc1-c1cnc2ccccc2c1 (stereo not shown) [Compound 610, N-(4-amino-3,4-dioxo-1-phenylbutan-2-yl)-1-(difluoromethyl)-3-(quinolin-3-yl)-1H-pyrazole-4-carboxamide] |
|  |  |  |  | < 3 µM | 10 to 25 µM | < 3 µM |  | < 3 µM |  | Cn1cc(C(=O)NC(Cc2ccccc2)C(=O)C(N)=O)c(-c2ccnc3ccccc23)n1 (stereo not shown) [Compound 611, N-(4-amino-3,4-dioxo-1-phenylbutan-2-yl)-1-methyl-3-(quinolin-4-yl)-1H-pyrazole-4-carboxamide] |
